Data from the supplement of paper PMC4862054.

Experiments:
Test in all cases: normalised viability (% of control), CellTiter-Blue; higher = more viable cells (about 100 = DMSO control)
HCC1599 = details: 100 nM; incubation time: 72 h
Protocol: (§1)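 DSRT, CellTiter-Blue viability, 72 h incubation. Signal is normalised to DMSO and benzethonium chloride controls. Value is the normalised response at dose 3.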

HCC1143 = details: 100 nM; incubation time: 72 h
Protocol: as §1

HCC1937 [1] = details: 100 nM; incubation time: 72 h
Protocol: as §1

MDA-MB-468 [2] = details: 100 nM; incubation time: 72 h
Protocol: as §1

BT-474 [3] = details: 100 nM; incubation time: 72 h
Protocol: as §1

MDA-MB-453 [4] = details: 10 nM; incubation time: 72 h
Protocol: as §1

MFM-223 [5] = details: 100 nM; incubation time: 72 h
Protocol: as §1

MDA-MB-231 = details: 100 nM; incubation time: 72 h
Protocol: as §1

HDQ-P1 [6] = details: 10 nM; incubation time: 72 h
Protocol: as §1

SK-BR-3 [7] = details: 100 nM; incubation time: 72 h
Protocol: as §1

DU-4475 [8] = details: 10 nM; incubation time: 72 h
Protocol: as §1

Hs578T [9] = details: 100 nM; incubation time: 72 h
Protocol: as §1

CAL-85-1 = details: 10 nM; incubation time: 72 h
Protocol: as §1

CAL-51 [10] = details: 10 nM; incubation time: 72 h
Protocol: as §1

CAL-120 [11] = details: 100 nM; incubation time: 72 h
Protocol: as §1

CAL-148 [12] = details: 10 nM; incubation time: 72 h
Protocol: as §1

BT-549 = details: 100 nM; incubation time: 72 h
Protocol: as §1

MDA-MB-436 = details: 100 nM; incubation time: 72 h
Protocol: as §1

HCC1937 [13] = details: incubation time: 72 h
In short: (§2)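 384-well plates were pre-loaded with compound in 5 µl medium before 20 µl of breast cancer cell suspension was seeded. Following 72 h incubation, 2.5 µl CellTiter-Blue reagent was added for 2 h at 37 °C. Fluorescence was read at 560/590 nm and plates were normalised to vehicle (100) and a positive kill control (0), checked by Z'-factor. Normalised viability is reported at a single listed concentration of the series.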

MDA-MB-468 [14] = details: incubation time: 72 h
In short: as §2

BT-474 [15] = details: incubation time: 72 h
In short: as §2

MDA-MB-453 [16] = details: incubation time: 72 h
In short: as §2

MFM-223 [17] = details: incubation time: 72 h
In short: as §2

HDQ-P1 [18] = details: incubation time: 72 h
In short: as §2

SK-BR-3 [19] = details: incubation time: 72 h
In short: as §2

DU-4475 [20] = details: incubation time: 72 h
In short: as §2

Hs578T [21] = details: incubation time: 72 h
In short: as §2

CAL-51 [22] = details: incubation time: 72 h
In short: as §2

CAL-120 [23] = details: incubation time: 72 h
In short: as §2

CAL-148 [24] = details: incubation time: 72 h
In short: as §2

Oc1nc(-c2ccc(C(F)(F)F)cc2)nc2c1CSCC2 [XAV-939]
Details	normalised viability [%]
BT-474 [3]	107
BT-549	104
CAL-51 [10]	98.8
CAL-85-1	96.3
CAL-120 [11]	97.2
CAL-148 [12]	92.6
DU-4475 [8]	111
HCC1143	77.6
HCC1599	116
HCC1937 [1]	101
HDQ-P1 [6]	104
Hs578T [9]	88.3
MDA-MB-231	89.1
MDA-MB-436	128
MDA-MB-453 [4]	101
MDA-MB-468 [2]	107
MFM-223 [5]	96.5
SK-BR-3 [7]	112

normalised viability [%]
Details	3 nM	10 nM	30 nM	100 nM	1000 nM	10000 nM
BT-474 [15]	–	107	–	–	100	103
CAL-51 [22]	102	–	101	101	–	–
CAL-120 [23]	–	90.6	–	–	92.8	105
CAL-148 [24]	89.3	–	90.4	94.3	–	–
DU-4475 [20]	117	–	101	121	–	–
HCC1937 [13]	–	113	–	–	89.3	122
HDQ-P1 [18]	113	–	104	98.6	–	–
Hs578T [21]	–	90.8	–	–	82.3	85.5
MDA-MB-453 [16]	104	–	94.2	105	–	–
MDA-MB-468 [14]	–	111	–	–	105	98.4
MFM-223 [17]	–	110	–	–	100	86.9
SK-BR-3 [19]	–	99.5	–	–	104	115
